Source: paper PMC10178204, “Peptaibol Analogs Show Potent Antibacterial Activity against Multidrug Resistant Opportunistic Pathogens” (International Journal of Molecular Sciences, 2023)
In brackets after ≈: the same amount, converted by molar mass. Several values for one entry are separate records, joined by “and”; a condition that tells them apart may be missing. Equal values may be shown once. Non-standard residues stand in square brackets, D forms with d. Residues, ends and D or L forms follow the SMILES beside them. *: point of attachment. Leu(ol) = CC(C)C[C@H](N)CO; Octanoyl = CCCCCCCC(=O)*; Aib = CC(C)(N)C(=O)O

Columns and labels:
[1] = tested on: P. aeruginosa VA-182/00 (VIM-2); conditions: MHB, 5 × 10^5 CFU/mL, 18 h, 35 °C, triplicate
Protocol: (§1) The minimum inhibitory concentration (MIC) and the minimum bactericidal concentration (MBC) of the compounds were determined in triplicate using Mueller–Hinton broth (MHB). […] Therefore, we decided to dissolve all peptides in DMSO to a final concentration of 25 mg/mL, for consistency. The bacteria inoculum was 5 × 10^5 CFU/mL, as recommended by CLSI (Document M07-A10, 2015). […] Reference-type strains, including representatives of both Gram-positive bacteria (Bacillus subtilis ATCC 6633, Enterococcus faecalis ATCC 29212, Staphylococcus aureus ATCC 25923, the methicillin-resistant Staphylococcus aureus ATCC 43300 (MRSA), Streptococcus pyogenes ATCC 12344) and Gram-negative bacteria (Escherichia coli CCUGT, Klebsiella pneumoniae ATCC 13833, Pseudomonas aeruginosa ATCC 27853, and Acinetobacter baumannii ATCC 17978), were acquired from ATCC or CCUG culture collections. Other antibiotic-resistant clinical isolates were present in our collection at the University Teaching Hospital (Azienda Ospedaliero-Universitaria Senese ‘Santa Maria alle Scotte’) in Siena, Tuscany, Italy. Specifically, MDR carbapenem-hydrolyzing class D β-lactamase-producing Acinetobacter baumannii and metallo-β-lactamase-producing Pseudomonas aeruginosa were used in this study (Table 4).

[2] = tested on: P. aeruginosa 101/1477 (IMP-1); conditions: MHB, 5 × 10^5 CFU/mL, 18 h, 35 °C, triplicate
Protocol: as §1

[3] = tested on: P. aeruginosa 506/99 (VIM-2); conditions: MHB, 5 × 10^5 CFU/mL, 18 h, 35 °C, triplicate
Protocol: as §1

[4] = tested on: S. aureus ATCC 43300 (MRSA); conditions: MHB, 5 × 10^5 CFU/mL, 18 h, 35 °C, triplicate
Protocol: as §1

[5] = tested on: P. aeruginosa VR-143/97 (VIM-1); conditions: MHB, 5 × 10^5 CFU/mL, 18 h, 35 °C, triplicate
Protocol: as §1

[6] = tested on: A. baumannii SI-12 (OXA-23); conditions: MHB, 5 × 10^5 CFU/mL, 18 h, 35 °C, triplicate
Protocol: as §1

[7] = tested on: A. baumannii SI-310 (OXA-24); conditions: colistin-resistant isolate; MHB, 5 × 10^5 CFU/mL, 18 h, 35 °C, triplicate
Protocol: as §1

[8] = tested on: A. baumannii SI-648 (OXA-23, OXA-51-like); conditions: MHB, 5 × 10^5 CFU/mL, 18 h, 35 °C, triplicate
Protocol: as §1

[9] = tested on: Pseudomonas aeruginosa ATCC 27853; conditions: MHB, 5 × 10^5 CFU/mL, 18 h, 35 °C, triplicate
Source text: (§2) The antibacterial activity of the peptides was initially assessed on a panel of representative Gram-positive and Gram-negative organisms of high clinical relevance and commonly responsible for bacterial infections in both animals and humans. Bacillus subtilis ATCC 6633 (Bsu) was also included as a rod-shaped model Gram-positive organism. This first panel comprised: Enterococcus faecalis ATCC 29212 (Efa); Streptococcus pyogenes ATCC 12344 (Spy); and Staphylococcus aureus ATCC 25923 (Sau); Gram-negative: Escherichia coli CCUGT (Eco), Klebsiella pneumoniae ATCC 13833 (Kpn), Acinetobacter baumannii ATCC 17978 (Aba), and Pseudomonas aeruginosa ATCC 27853 (Pae) (Table 2). Both the minimum inhibitory concentration (MIC, Table 2) and the minimum bactericidal concentration (MBC, Table S1, Supporting Material) were determined.
as §1

[10] = tested on: Klebsiella pneumoniae ATCC 13833; conditions: MHB, 5 × 10^5 CFU/mL, 18 h, 35 °C, triplicate
Source text: as §2, §1

[11] = tested on: Streptococcus pyogenes ATCC 12344; conditions: MHB, 5 × 10^5 CFU/mL, 18 h, 35 °C, triplicate
Source text: as §2, §1

[12] = tested on: Staphylococcus aureus ATCC 25923; conditions: MHB, 5 × 10^5 CFU/mL, 18 h, 35 °C, triplicate
Source text: as §2, §1

[13] = tested on: reference Gram-positive and Gram-negative strains
Source text: as §2, §1

Escherichia coli CCUGT = conditions: MHB, 5 × 10^5 CFU/mL, 18 h, 35 °C, triplicate
Source text: as §2, §1

[14] = tested on: Enterococcus faecalis ATCC 29212; conditions: MHB, 5 × 10^5 CFU/mL, 18 h, 35 °C, triplicate
Source text: as §2, §1

[15] = tested on: Bacillus subtilis ATCC 6633; conditions: MHB, 5 × 10^5 CFU/mL, 18 h, 35 °C, triplicate
Source text: as §2, §1

[16] = tested on: Acinetobacter baumannii ATCC 17978; conditions: for MBC Aba / MIC Aba: MHB, 5 × 10^5 CFU/mL, 18 h, 35 °C, triplicate; for MIC against A. baumannii, in molar units: corresponding to 2 and 8 μg/mL
Source text: as §2, §1

| Compound | MBC P. aeruginosa VA-182/00 (VIM-2) [1] | MIC P. aeruginosa VA-182/00 (VIM-2) [1] | MBC P. aeruginosa 101/1477 (IMP-1) [2] | MIC P. aeruginosa 101/1477 (IMP-1) [2] | MBC P. aeruginosa 506/99 (VIM-2) [3] | MIC P. aeruginosa 506/99 (VIM-2) [3] | MBC S. aureus ATCC 43300 (MRSA) [4] | MIC S. aureus ATCC 43300 (MRSA) [4] | MBC P. aeruginosa VR-143/97 (VIM-1) [5] | MIC P. aeruginosa VR-143/97 (VIM-1) [5] | MBC A. baumannii SI-12 (OXA-23) [6] | MIC A. baumannii SI-12 (OXA-23) [6] | MBC A. baumannii SI-310 (OXA-24) [7] | MIC A. baumannii SI-310 (OXA-24) [7] | MBC A. baumannii SI-648 (OXA-23, OXA-51-like) [8] | MIC A. baumannii SI-648 (OXA-23, OXA-51-like) [8] | MIC Pae [9] | MIC Kpn [10] | MBC Spy [11] | MIC Spy [11] | also measured |
| --- | --- | --- | --- | --- | --- | --- | --- | --- | --- | --- | --- | --- | --- | --- | --- | --- | --- | --- | --- | --- | --- |
| 1-Oct-Aib-Gly-Leu-Aib-Lys-Lys-Leu-Aib-Lys-Ile-Lol [Peptide 5] | 8 µg/mL | 8 µg/mL | 8 µg/mL | 8 µg/mL | 8 µg/mL | 8 µg/mL | 2 µg/mL | 2 µg/mL | 8 µg/mL | 8 µg/mL | 4 µg/mL | 4 μg/mL and 4/4 μg/mL | 4 µg/mL | 2 µg/mL | 4 µg/mL | 4 μg/mL and 4/4 μg/mL | 8 µg/mL | 16 µg/mL | 4 µg/mL | 4 µg/mL | MBC Pae [9]: > 16 µg/mL; MBC Kpn [10]: 16 µg/mL; MBC Sau [12]: 16 µg/mL; MIC Sau [12]: 16 µg/mL; MIC against six of the eight bacterial strains tested ([13]; reference panel): 4 to 8 µg/mL; MIC against the other two strains ([13]; reference panel): 16 µg/mL; MBC Eco (Escherichia coli CCUGT): > 16 µg/mL; MIC Eco (Escherichia coli CCUGT): 8 µg/mL; MBC Efa [14]: 8 µg/mL; MIC Efa [14]: 4 µg/mL; MBC Bsu [15]: 16 µg/mL; MIC Bsu [15]: 8 µg/mL; MBC Aba [16]: 16 µg/mL; MIC Aba [16]: 4 µg/mL; MIC against A. baumannii, in molar units [16]: 1.8 to 7.2 µM |
| CCCCCCCC(=O)NC(C)(C)C(=O)N[C@@H](CCCCN)C(=O)N[C@@H](CC(C)C)C(=O)NC(C)(C)C(=O)N[C@@H](CCCCN)C(=O)NCC(=O)N[C@@H](CC(C)C)C(=O)NC(C)(C)C(=O)NCC(=O)N[C@H](C(=O)N[C@H](CO)CC(C)C)[C@@H](C)CC [Peptide 1, 1-Oct-Aib-Lys-Leu-Aib-Lys-Gly-Leu-Aib-Gly-Ile-Lol] (Octanoyl-[Aib]KL[Aib]KGL[Aib]GI[Leu(ol)]) | 16 µg/mL (≈ 13.2 µM) | 16 µg/mL (≈ 13.2 µM) | 16 µg/mL (≈ 13.2 µM) | 8 µg/mL (≈ 6.62 µM) | 32 µg/mL (≈ 26.5 µM) | 16 µg/mL (≈ 13.2 µM) | 2 µg/mL (≈ 1.65 µM) | 2 µg/mL (≈ 1.65 µM) | 32 µg/mL (≈ 26.5 µM) | 32 µg/mL (≈ 26.5 µM) | 8 µg/mL (≈ 6.62 µM) | 4 µg/mL (≈ 3.31 µM) | 4 µg/mL (≈ 3.31 µM) | 4 μg/mL and 4/4 μg/mL | 16 µg/mL (≈ 13.2 µM) | 8 µg/mL (≈ 6.62 µM) | 16 µg/mL (≈ 13.2 µM) | > 128 µg/mL | 4 µg/mL (≈ 3.31 µM) | 2 µg/mL (≈ 1.65 µM) | MIC Sau [12]: 16 µg/mL (≈ 13.2 µM); lowest MIC ([13]; lowest value over the eight reference strains): 2 µg/mL; MBC Eco (Escherichia coli CCUGT): 32 µg/mL (≈ 26.5 µM); MIC Eco (Escherichia coli CCUGT): 32 µg/mL (≈ 26.5 µM); MBC Efa [14]: 2 µg/mL (≈ 1.65 µM); MIC Efa [14]: 2 µg/mL (≈ 1.65 µM); MBC Bsu [15]: 16 µg/mL (≈ 13.2 µM); MIC Bsu [15]: 4 µg/mL (≈ 3.31 µM); MBC Aba [16]: 16 µg/mL (≈ 13.2 µM); MIC Aba [16]: 4 µg/mL (≈ 3.31 µM); MIC against A. baumannii, in molar units [16]: 1.8 to 7.2 µM |
